Source: ChEMBL document CHEMBL1649329, “Differential selection of single-step AmpC or efflux mutants of Pseudomonas aeruginosa by using cefepime, ceftazidime, or ceftobiprole” (2010)

Columns and labels:
Assay type in all cases: functional
Pseudomonas aeruginosa [1] = assay: Antimicrobial activity against Pseudomonas aeruginosa OC 12070 expressing 11 fold elevated mexX expression and 10 fold elevated mexY expression by broth macrodilution method
Pseudomonas aeruginosa [2] = assay: Antimicrobial activity against Pseudomonas aeruginosa OC 12070 expressing 27 fold elevated mexX expression and 49 fold elevated mexY expression by broth macrodilution method
Pseudomonas aeruginosa [3] = assay: Antimicrobial activity against Pseudomonas aeruginosa OC 12070 expressing 7 fold elevated AmpC expression by broth macrodilution method
Pseudomonas aeruginosa [4] = assay: Antimicrobial activity against Pseudomonas aeruginosa OC 12070 expressing 5 fold elevated AmpC expression by broth macrodilution method
Pseudomonas aeruginosa [5] = assay: Antimicrobial activity against Pseudomonas aeruginosa OC 12070 expressing 10 fold elevated mexX expression and 23 fold elevated mexY expression by broth macrodilution method
Pseudomonas aeruginosa [6] = assay: Antimicrobial activity against Pseudomonas aeruginosa OC 12070 expressing 151 fold elevated mexX expression and 127 fold elevated mexY expression by broth macrodilution method
Pseudomonas aeruginosa [7] = assay: Antimicrobial activity against Pseudomonas aeruginosa OC 12070 expressing 12 fold elevated mexX expression and 25 fold elevated mexY expression by broth macrodilution method
Pseudomonas aeruginosa [8] = assay: Antimicrobial activity against Pseudomonas aeruginosa OC 12070 expressing 107 fold elevated mexX expression and 155 fold elevated mexY expression by broth macrodilution method
Pseudomonas aeruginosa [9] = assay: Antimicrobial activity against Pseudomonas aeruginosa OC 12070 expressing 36 fold elevated mexX expression and 39 fold elevated mexY expression by broth macrodilution method
Pseudomonas aeruginosa [10] = assay: Antimicrobial activity against Pseudomonas aeruginosa OC 12070 expressing 65 fold elevated mexX expression and 106 fold elevated mexY expression by broth macrodilution method
Pseudomonas aeruginosa [11] = assay: Antimicrobial activity against wild type Pseudomonas aeruginosa
Pseudomonas aeruginosa [12] = assay: Antimicrobial activity against wild type Pseudomonas aeruginosa PAO1 by broth macrodilution method
Pseudomonas aeruginosa [13] = assay: Antimicrobial activity against Pseudomonas aeruginosa OC 4351 by broth macrodilution method
Pseudomonas aeruginosa [14] = assay: Antimicrobial activity against Pseudomonas aeruginosa OC 11053 by broth macrodilution method
Pseudomonas aeruginosa [15] = assay: Antimicrobial activity against Pseudomonas aeruginosa OC 11492 by broth macrodilution method
Pseudomonas aeruginosa [16] = assay: Antimicrobial activity against Pseudomonas aeruginosa OC 12070 by broth macrodilution method
Pseudomonas aeruginosa [17] = assay: Antimicrobial activity against Pseudomonas aeruginosa OC 11678 by broth macrodilution method
Pseudomonas aeruginosa [18] = assay: Antimicrobial activity against Pseudomonas aeruginosa OC 12261 by broth macrodilution method
Pseudomonas aeruginosa [19] = assay: Antimicrobial activity against wild type Pseudomonas aeruginosa ATCC 27853 by broth macrodilution method
Pseudomonas aeruginosa [20] = assay: Antimicrobial activity against Pseudomonas aeruginosa OC 11678 expressing 33 fold elevated AmpC expression by broth macrodilution method
Pseudomonas aeruginosa [21] = assay: Antimicrobial activity against Pseudomonas aeruginosa OC 11678 expressing 34 fold elevated AmpC expression by broth macrodilution method
Pseudomonas aeruginosa [22] = assay: Antimicrobial activity against Pseudomonas aeruginosa OC 11678 expressing 31 fold elevated AmpC expression by broth macrodilution method
Pseudomonas aeruginosa [23] = assay: Antimicrobial activity against Pseudomonas aeruginosa OC 11678 expressing 30 fold elevated AmpC expression by broth macrodilution method
Pseudomonas aeruginosa [24] = assay: Antimicrobial activity against Pseudomonas aeruginosa OC 11678 expressing 40 fold elevated AmpC expression by broth macrodilution method
Pseudomonas aeruginosa [25] = assay: Antimicrobial activity against Pseudomonas aeruginosa OC 11678 expressing 36 fold elevated AmpC expression by broth macrodilution method
Pseudomonas aeruginosa [26] = assay: Antimicrobial activity against Pseudomonas aeruginosa OC 11678 expressing 32 fold elevated AmpC expression by broth macrodilution method
Pseudomonas aeruginosa [27] = assay: Antimicrobial activity against Pseudomonas aeruginosa OC 11678 expressing 29 fold elevated AmpC expression by broth macrodilution method
Pseudomonas aeruginosa [28] = assay: Antimicrobial activity against Pseudomonas aeruginosa OC 11678 expressing 15 fold elevated AmpC expression by broth macrodilution method
Pseudomonas aeruginosa [29] = assay: Antimicrobial activity against Pseudomonas aeruginosa OC 11678 expressing 9 fold elevated AmpC expression by broth macrodilution method
Pseudomonas aeruginosa [30] = assay: microbe, parasite or virus in culture; conditions: OC 11678
Description: Antimicrobial activity against Pseudomonas aeruginosa OC 11678 expressing 27 fold elevated mexX expression and 16 fold elevated mexY expression by broth macrodilution method

Pseudomonas aeruginosa [31] = assay: Antimicrobial activity against Pseudomonas aeruginosa OC 11678 expressing 31 fold elevated mexX expression and 17 fold elevated mexY expression by broth macrodilution method
Pseudomonas aeruginosa [32] = assay: Antimicrobial activity against Pseudomonas aeruginosa OC 11678 expressing 71 fold elevated mexX expression and 43 fold elevated mexY expression by broth macrodilution method
Pseudomonas aeruginosa [33] = assay: Antimicrobial activity against Pseudomonas aeruginosa OC 12070 expressing 37 fold elevated AmpC expression by broth macrodilution method
Pseudomonas aeruginosa [34] = assay: Antimicrobial activity against Pseudomonas aeruginosa OC 12070 expressing 11 fold elevated AmpC expression by broth macrodilution method
Pseudomonas aeruginosa [35] = assay: Antimicrobial activity against Pseudomonas aeruginosa OC 12070 expressing 8 fold elevated AmpC expression by broth macrodilution method

CO/N=C(\C(=O)N[C@@H]1C(=O)N2C(C(=O)[O-])=C(C[N+]3(C)CCCC3)CS[C@H]12)c1csc(N)n1 [CEFEPIME]
32 µg/mL: MIC (Pseudomonas aeruginosa [20]) | MIC (Pseudomonas aeruginosa [21]) | MIC (Pseudomonas aeruginosa [22]) | MIC (Pseudomonas aeruginosa [23]) | MIC (Pseudomonas aeruginosa [24]) | MIC (Pseudomonas aeruginosa [25]) | MIC (Pseudomonas aeruginosa [26]) | MIC (Pseudomonas aeruginosa [27]) | MIC (Pseudomonas aeruginosa [28]) | MIC (Pseudomonas aeruginosa [29]) | MIC (Pseudomonas aeruginosa [32])
8 µg/mL: MIC (Pseudomonas aeruginosa [1]) | MIC (Pseudomonas aeruginosa [2]) | MIC (Pseudomonas aeruginosa [4]) | MIC (Pseudomonas aeruginosa [5]) | MIC (Pseudomonas aeruginosa [6]) | MIC (Pseudomonas aeruginosa [7]) | MIC (Pseudomonas aeruginosa [9]) | MIC (Pseudomonas aeruginosa [17]) | MIC (Pseudomonas aeruginosa [30]) | MIC (Pseudomonas aeruginosa [31])
4 µg/mL: MIC50 (Pseudomonas aeruginosa [11]) | MIC (Pseudomonas aeruginosa [14]) | MIC (Pseudomonas aeruginosa [15]) | MIC (Pseudomonas aeruginosa [18])
2 µg/mL: MIC (Pseudomonas aeruginosa [12]) | MIC (Pseudomonas aeruginosa [13]) | MIC (Pseudomonas aeruginosa [16]) | MIC (Pseudomonas aeruginosa [19])
16 µg/mL: MIC (Pseudomonas aeruginosa [3]) | MIC (Pseudomonas aeruginosa [8]) | MIC (Pseudomonas aeruginosa [10]) | MIC (Pseudomonas aeruginosa [33]) | MIC (Pseudomonas aeruginosa [34]) | MIC (Pseudomonas aeruginosa [35])

CC(C)(O/N=C(\C(=O)N[C@@H]1C(=O)N2C(C(=O)[O-])=C(C[n+]3ccccc3)CS[C@H]12)c1csc(N)n1)C(=O)O [CEFTAZIDIME]
1 µg/mL: MIC (Pseudomonas aeruginosa [12]) | MIC (Pseudomonas aeruginosa [13]) | MIC (Pseudomonas aeruginosa [14])
2 µg/mL: MIC (Pseudomonas aeruginosa [1]) | MIC50 (Pseudomonas aeruginosa [11]) | MIC (Pseudomonas aeruginosa [15]) | MIC (Pseudomonas aeruginosa [16]) | MIC (Pseudomonas aeruginosa [19])
64 µg/mL: MIC (Pseudomonas aeruginosa [3]) | MIC (Pseudomonas aeruginosa [25]) | MIC (Pseudomonas aeruginosa [28]) | MIC (Pseudomonas aeruginosa [29])
32 µg/mL: MIC (Pseudomonas aeruginosa [32]) | MIC (Pseudomonas aeruginosa [33]) | MIC (Pseudomonas aeruginosa [34]) | MIC (Pseudomonas aeruginosa [35])
8 µg/mL: MIC (Pseudomonas aeruginosa [5]) | MIC (Pseudomonas aeruginosa [6])
16 µg/mL: MIC (Pseudomonas aeruginosa [4]) | MIC (Pseudomonas aeruginosa [8]) | MIC (Pseudomonas aeruginosa [10])
128 µg/mL: MIC (Pseudomonas aeruginosa [20]) | MIC (Pseudomonas aeruginosa [21]) | MIC (Pseudomonas aeruginosa [22]) | MIC (Pseudomonas aeruginosa [23]) | MIC (Pseudomonas aeruginosa [24]) | MIC (Pseudomonas aeruginosa [26]) | MIC (Pseudomonas aeruginosa [27])
4 µg/mL: MIC (Pseudomonas aeruginosa [2]) | MIC (Pseudomonas aeruginosa [7]) | MIC (Pseudomonas aeruginosa [9]) | MIC (Pseudomonas aeruginosa [17]) | MIC (Pseudomonas aeruginosa [18]) | MIC (Pseudomonas aeruginosa [30]) | MIC (Pseudomonas aeruginosa [31])

Nc1nc(/C(=N/O)C(=O)N[C@@H]2C(=O)N3C(C(=O)O)=C(/C=C4\CCN([C@@H]5CCNC5)C4=O)CS[C@H]23)ns1 [CEFTOBIPROLE]
2 µg/mL: MIC50 (Pseudomonas aeruginosa [11]) | MIC (Pseudomonas aeruginosa [12]) | MIC (Pseudomonas aeruginosa [13]) | MIC (Pseudomonas aeruginosa [16]) | MIC (Pseudomonas aeruginosa [19]) | MIC (Pseudomonas aeruginosa [33])
8 µg/mL: MIC (Pseudomonas aeruginosa [1]) | MIC (Pseudomonas aeruginosa [15]) | MIC (Pseudomonas aeruginosa [27]) | MIC (Pseudomonas aeruginosa [30]) | MIC (Pseudomonas aeruginosa [31])
16 µg/mL: MIC (Pseudomonas aeruginosa [2]) | MIC (Pseudomonas aeruginosa [5]) | MIC (Pseudomonas aeruginosa [6]) | MIC (Pseudomonas aeruginosa [7]) | MIC (Pseudomonas aeruginosa [8]) | MIC (Pseudomonas aeruginosa [9]) | MIC (Pseudomonas aeruginosa [10])
4 µg/mL: MIC (Pseudomonas aeruginosa [3]) | MIC (Pseudomonas aeruginosa [4]) | MIC (Pseudomonas aeruginosa [14]) | MIC (Pseudomonas aeruginosa [17]) | MIC (Pseudomonas aeruginosa [18]) | MIC (Pseudomonas aeruginosa [20]) | MIC (Pseudomonas aeruginosa [21]) | MIC (Pseudomonas aeruginosa [22]) | MIC (Pseudomonas aeruginosa [23]) | MIC (Pseudomonas aeruginosa [24]) | MIC (Pseudomonas aeruginosa [25]) | MIC (Pseudomonas aeruginosa [26]) | MIC (Pseudomonas aeruginosa [28]) | MIC (Pseudomonas aeruginosa [29]) | MIC (Pseudomonas aeruginosa [34]) | MIC (Pseudomonas aeruginosa [35])
32 µg/mL: MIC (Pseudomonas aeruginosa [32])
